Experimental data: patent EP0041615A1, “Use of imidazolyl-vinyl ketones and alcohols as antimicrobial agents” (BAYER AG, priority 1980, dated 1981)

How the values were obtained:
[1] = tested on: Dermatophyten und Schimmelpilze; Hefen; assay: Antimycotic in-vitro activity, serial dilution test; type: cell-based; details: inoculum 5 x 10^4 germs/ml, 28°C, 24 h (yeasts) or 96 h (dermatophytes, moulds), stated relative to prior-art compound (A)
Procedure: Antimykotische in-vitro-Wirksamkeit
Die in-vitro-Wirksamkeit im Reihenverdünnungstest wird mit Keiminokula von durchschnittlich 5 x 10^4 Keimen /ml Substant durchgeführt. Als Nährmedium dienten: • a) für Dermatophyten und Schimmelpilze: Sabouraud's milieu d'epreuve • b) für Hefen: Isotonic Sensitest-Broth von Oxid.
Die Bebrütungstemperatur berug 28°C; Bebrütungsdauer war 24 Stunden bei Hefen und 96 Stunden bei Dermatophyten und Schimmelpilzen.

[2] = tested on: Trichophyton mentagrophytes; assay: Antimicrobial in-vivo activity (local), experimental guinea pig trichophytosis model; parameters: species or system Meerschweinchen der Rasse Pirbright-white; details: once daily from day 3 p.i., 1 % solution in dimethyl sulfoxide:glycerol 1:4, result means only slight reddening and isolated scales
Excerpt: Antimikrobielle in-vivo-Wirksamkeit (lokal) am Modell der experimetellen Meerschweinchen-Trichophytie
Weiße Meerschweinchen der Rasse Pirbright-white wurden auf dem geschorenen, nicht skarifizierten Rücken mit einer Mikro- und Makrokonidien-Suspension von Trichophyton mentagrophytes infiziert. Die infizierten Tiere wurden, beginnend am 3.Tag p.i., lx täglich mit 1%-iger Lösung der erfindungsgemäßen Präparate (in Dimethylsulfoxid:Glycerin=1:4) lokal behandelt.
Bei unbehandelten Tieren entwickelt sich innerhalb von 12 Tagen p.i. das typische Bild einer Dermatophytose mit Rötung, Schuppung und Haarausfall bis zum totalen Integument-Defekt an der Infektionsstelle.

Candida-Zellen = assay: Antimycotic in-vivo activity (oral) in mouse candidosis; parameters: species or system Mäuse vom Typ SPF-CF1; details: 50-100 mg/kg each 1 h before and 7 h after i.v. infection, untreated controls about 5 % survival on day 6 p.i.
Procedure: Antimykotische in-vivo-Wirksamkeit (oral) bei Mäuse-Candidose
Mäuse vom Typ SPF-CF1 wurden intravenös mit 1-2 x 10^6 logarithmisch wachsenden Candida-Zellen, die in physiologischer Kochsalzlösung suspendiert waren, infiziert. Eine Stunde vor und sieben Stunden nach der Infektion werden die Tiere mit jeweils 50-100 mg/kg Körpergewicht der Präparate oral behandelt.
Unbehandelte Tiere starben 3 bis 6 Tage post infektionem. Die Ueberlebensrate am 6.Tag post infektionem betrug bei unbehandelten Kontrolltieren etwa 5 %.

## CCCCCCCC=C(C(O)C(C)(C)C)n1ccnc1 (stereo not shown) [Beispiel 2]
[1]
  antimykotische Wirkung: bessere antimykotische Wirkung
[2]
  Wirkung (Meerschweinchen-Trichophytie): Wirkung bis gute Wirkung

## CC(C)(C)C(O)C(=CC1c2ccccc2-c2ccccc21)n1ccnc1 (stereo not shown) [Beispiel 32]
[1]
  antimykotische Wirkung: bessere antimykotische Wirkung

## CC(C)(C)C(=O)C(=Cc1ccccc1Cl)n1ccnc1 [Verbindung (A), reference compound]
Candida-Zellen
  Wirkung (Mäuse-Candidose): keine Wirkung

## CC(C)(C)C(O)C(=Cc1ccc(Cl)cc1)n1ccnc1 (stereo not shown) [(B), reference compound]
Candida-Zellen
  Wirkung (Mäuse-Candidose): keine Wirkung

## CC(C)C=C(C(=O)C(C)(C)C)n1ccnc1 [Beispiel 5]
Candida-Zellen
  Wirkung (Mäuse-Candidose): gute bis sehr gute Wirkung
[1]
  antimykotische Wirkung: bessere antimykotische Wirkung

## CC(C)(C)C=C(C(=O)C(C)(C)C)n1ccnc1 [Beispiel 7]
Candida-Zellen
  Wirkung (Mäuse-Candidose): gute bis sehr gute Wirkung
[1]
  antimykotische Wirkung: bessere antimykotische Wirkung

## CC=C(C(O)C(C)(C)C)n1ccnc1 (stereo not shown) [Beispiel 25]
Candida-Zellen
  Wirkung (Mäuse-Candidose): gute bis sehr gute Wirkung

## CC(C)(C)C(O)C(=CC1CCCCC1)n1ccnc1 (stereo not shown) [Beispiel 37]
[1]
  antimykotische Wirkung: bessere antimykotische Wirkung

## CC(C)(C)C(=O)C(=CC1CCCC1)n1ccnc1 [Beispiel 10]
[1]
  antimykotische Wirkung: bessere antimykotische Wirkung

## CCC(C)C=C(C(O)C(C)(C)C)n1ccnc1 (stereo not shown) [Beispiel 27]
[2]
  Wirkung (Meerschweinchen-Trichophytie): Wirkung bis gute Wirkung

## CCCCCCCC=C(C(=O)C(C)(C)C)n1ccnc1 [Beispiel 1]
[1]
  antimykotische Wirkung: bessere antimykotische Wirkung
[2]
  Wirkung (Meerschweinchen-Trichophytie): Wirkung bis gute Wirkung

## CCC(C)C=C(C(=O)C(C)(C)C)n1ccnc1 (stereo not shown) [Beispiel 8]
Candida-Zellen
  Wirkung (Mäuse-Candidose): gute bis sehr gute Wirkung
[1]
  antimykotische Wirkung: bessere antimykotische Wirkung
[2]
  Wirkung (Meerschweinchen-Trichophytie): Wirkung bis gute Wirkung

## CC(C)(C)C(O)C(=CC1CCCC1)n1ccnc1 (stereo not shown) [Beispiel 28]
[1]
  antimykotische Wirkung: bessere antimykotische Wirkung
